Laboratory results published in patent US7354926B2, “Molecules derived from noraporphine” (Sederma SAS, priority 2002, dated 2008).

Tests used:
[1] = test system: G-3-PDH (Glycerol-3-Phosphate deshydrogenase) activity in fibroblasts 3T3 L1 / pre-adipocytes; experiment: Inhibition of lipogenesis (in vitro): G-3-PDH activity in differentiating 3T3 L1 pre-adipocytes; assay type: cell-based; settings: for ACTIVITY G-3-PDH/10^−6 cells (inhibition in % of the witness): average of 3 independent tests
Protocol: The following test is based on the fact that a cocktail from substances (hormonal messengers) induce the fibroblasts 3T3 L1 differentiation, in culture, into pre-adipocytes then in adipocytes charged with lipids.
The culture proceeds in three stages: cellular multiplication until confluence, addition of cocktail of differentiation (stage during which the initial pre-adipocytes are obtained (72 hours), then active differentiation with lipogenesis stimulation (approximately 72 hours) at the end of which apparent storage in lipidic droplets is then definitely visible under microscope.
The enzyme G-3-PDH (Glycerol-3-Phosphate deshydrogenase), essential to triglyceride synthesis is expressed very strongly during this active stage of lipidic storage.
The product to be tested is added at the second step.
After the incubation period the G-3-PDH activity is compared between the pre-adipocytes witnesses and those incubated in the presence of the tested product. Under these conditions, a product which inhibits the lipogenesis causes a fall of the G-3-PDH activity.
After the induced differentiation, the solution to test is added to the culture of pre-adipocytes, here a 2,9-diacetyloxy-1,10-dimethoxy-6-methyl-noraporphine solution (compound II). In parallel, two witness cultures, one in negative and the other in positive are carried out.
At the end of the incubation, the cells are taken and lysed and the test is carried out on the intracellular contents.
The G-3-PDH activity is measured by NADH disappearance (λ=340 nm).
The enzymatic activity values are standardized with the number of cells.

[2] = test system: normal human melanocytes (MHN); experiment: Inhibition of melanin synthesis (in vitro) in culture of normal human melanocytes; assay type: cell-based; settings: 7 days of exposure, various concentrations, vs control cells, normalized on protein content
Protocol: The efficacy of the products on melanization was tested in culture of normal human melanocytes (MHN). This culture medium is conventionally used to test variations in melanin levels. The cells are incubated in the presence of the test product for 7 days while the control cells are incubated in the culture medium alone.
After 7 days, the total melanin (phaeomelanin and eumelanin) present in the cells is determined after cell lysis and dissolution in sodium hydroxide, the assay is colorimetric.
The melanin level produced under exposure to the test product at various concentrations are compared to those obtained with the control cells. The data are normalized on the protein content of the sample.
The inhibition of synthesis observed after 7 days of exposure to those products is dependent on the test concentration. Inhibition varies from −28 to −51%.

[3] = Inhibition of peroxidation induced on liposomes by UVA; settings: for Inhibition perox. UVA: UVA 10 J/cm^2, 45° C., 24 hours, combined dienes
Protocol: (§1) In order to seek an antioxidant activity, we evaluated 2,9-diacetyloxy-1,10-dimethoxy-6-methyl-noraporphine (compound II) effect on the inhibition of peroxidation induced on liposomes by UVA or pair HO2/FeCl2.
(§2) The liposomes, once manufactured, receive the products to be tested in solution. Then they are put under UVA lamp and are irradiated to 10 J/cm^2. The liposomes are incubated at 45° C. After 24 hours, the lipidic peroxidation is quantified by estimating the rate of combined dienes markers. The effect of the product is compared with negative control.

[4] = Inhibition of peroxidation induced on liposomes by HO2/FeCl2 (Fenton reaction); settings: 0.06 mmol/l; similar protocol with HO2/FeCl2 added to the liposomes
Protocol: as §1, §2
A strong inhibition (−60% with 0.06 mmol/l) is also obtained in a similar protocol when HO2/FeCl2. is added (Fenton reaction) to the solution of liposomes.

Structure (SMILES): COc1cc2c(cc1OC(C)=O)CC1c3c(cc(OC(C)=O)c(OC)c3-2)CCN1C (centres unmarked) [compound II, 2,9-diacetyloxy-1,10-dimethoxy-6-methyl-noraporphine]
- ACTIVITY G-3-PDH/10^−6 cells (inhibition in % of the witness) ([1]; 0.03 mmol/l): −49%
- ACTIVITY G-3-PDH/10^−6 cells (inhibition in % of the witness) ([1]; 0.06 mmol/l): −67%
- Morphology of the preadipocytes under microscope ([1]; compared to witness cells): few lipidic inclusions
- Inhibition of melanin synthesis [2]: −28 to −51%
- Inhibition perox. UVA ([3]; 0.03 mmol/l): −93%
- Inhibition perox. UVA ([3]; 0.06 mmol/l): −87%
- Inhibition perox. UVA ([3]; 0.09 mmol/l): −89%
- Inhibition perox. UVA ([3]; 0.15 mmol/l): ≈−100%
- Inhibition perox. UVA ([3]; 0.30 mmol/l): ≈−100%
- Inhibition of lipidic peroxidation UVA induced (in words) ([3]; with the tested concentrations (0.03-0.30 mmol/l)): almost completely inhibits
- Inhibition of peroxidation, HO2/FeCl2 (Fenton reaction) [4]: −60%
